From US8193235B2, “Compositions and methods for establishing and maintaining stem cells in an undifferentiated state” (University of Kansas, priority 2009, dated 2012)

Experiments:
E14 ES cells = experiment: ES cell differentiation on collagen IV and with retinoic acid; assay type: cell-based, mouse
From the text: ES Cell Differentiation on Collagen-IV and With Retinoic Acid. To differentiate ES cells in monolayer culture on collagen IV, around 3×10^4 cells per well were transferred to collagen IV-coated 6-well plates (BD Biosciences, Franklin Lakes, N.J.) cultured for 5 days in ES differentiation medium containing DMEM (Invitrogen), 15% FBS (selected for endothelial differentiation, Stem Cell Technologies, Vancouver, BC), sodium pyruvate and L-glutamine with or without LIF and Gö6983, and were recovered by cell dissociation buffer (BD Biosciences, Franklin Lakes, N.J.). For culturing multiple passages with Gö6983 on collagen-IV, the recovered cells were again plated at a density of ˜3×10^4 cells per well and cultured again for 5 days. […] For RA-induced differentiation on monolayer culture, ES cells were treated with all-trans-retinoic acid (Sigma, St. Louis, Mo.) in ethanol at a concentration of 1 μM with or without LIF and Gö6983 for 6 days followed by study of expression of pluripotency markers (by immunofluorescence or western blot or RT-PCR analysis).

129/Sv blastocysts = experiment: De novo derivation of new ES cells from blastocysts; assay type: cell-based, mouse
Experimental: De Novo Derivation of New ES Cells With Gö6983. Blastocysts from 6-week-old female 12952/SvPasCrl (129/Sv) strain mice (Charles River Laboratory, Wilmington, Mass.) were isolated at 3.5 day post-coitum. Isolated blasotocysts were plated on gelatin-coated plastic in medium containing Gö6983 and FBS and without LIF. To obtain ES cell colonies, blastocyst outgrowths were disaggregated with trypsin and replated on gelatin-coated wells with Gö6983 and FBS. ES cell colonies were expanded by replating with Gö6983 at clonal or higher density. For in vitro analysis, cells were differentiated following the same protocol described herein. After six passages with Gö6983-condition, chromosome numbers were checked by karyotyping, and injected in C57BL/6 blastocysts for chimera generation.

c-Myc = experiment: GSK-3β-mediated phosphorylation of c-Myc at T58; assay type: cell-based, mouse; settings: Gö6983 alone
[1] = test system: H3K27me3, EZH2, H3K9Me3, H3K4Me3 at gene loci; experiment: Quantitative ChIP assay of chromatin marks; assay type: cell-based, mouse
Experimental: Quantitative ChIP Assay. Real-time PCR-based quantitative ChIP analysis was performed according to known methods (Dutta, et al. (2008) supra). Proliferating E14 cells (+LIF), ES cells differentiated on Collagen-IV with or without Gö6983 were either trypsinized or collected by using cell-dissociaton buffer and protein-DNA crosslinking was conducted by treating cells with formaldehyde at a final concentration of 1% for 10 minutes at room temperature with gentle agitation. Glycine (0.125 M) was added to quench the reaction. Antibodies against EZH2, SUZ12, H3K27Me3, H3K9Me3, and H3K4Me3 were used to immunoprecipitate protein-DNA crosslinked fragments. Immunoprecipitated DNA was analyzed by real-time PCR (ABI 7500, Applied Biosystem, Foster City, Calif.). Samples from three or more immunoprecipitates were analyzed using a standard curve from sonicated total chromatin (input) samples.

[2] = test system: Oct4 and Nanog promoter regions; experiment: DNA methylation analysis (bisulfite sequencing, MSP); assay type: cell-based, mouse; settings: E14 cells, 5 days on collagen-IV
From the text: DNA Methylation Analysis. One μg of genomic DNA was subjected to bisulfite treatment using CPGENOME Fast DNA Modification Kit (Chemicon Int.). For bisulfite sequencing, the modified DNA was amplified by nested polymerase chain reaction (PCR) using two forward (F) primers and one reverse (R) primer: Oct4 (F1, 5′-GTTGTTTTGTTTTGGTTTTGGATAT-3′, SEQ ID NO:57; F2, 5′-ATGGGTTGAAATATTGGGTTTATTTA-3′, SEQ ID N:58; and R, 5′-CCACCCTCTAACCTTAACCTCTAAC-3′, SEQ ID NO:59) and Nanog (F1, 5′-GAGGATGTTTTTTAAGTTTTTTTT-3′, SEQ ID NO:60; F2, 5′-AATGTTTATGGTGGATTTTGTAGGT-3′, SEQ ID NO:;61; and R, 5′-CCCACACTCATATCAATATAATAAC-3′, SEQ ID NO:62). The resulting PCR product was gel purified, subcloned into pGEM-T vector (Promega) and sequenced using M13R primer. Following primers were used for MSP: Oct4, (F) 5′-GGTTTTAGAAATAATTGGTATACGA-3′ (SEQ ID NO:63), and (R) 5′-CTATTAACACTACACCCTCTCGAC-3′ (SEQ ID NO:64); and Nanog, (F) 5′-ATTTGTGAGTATAAGGATTGATCGG-3′ (SEQ ID NO:65), and (R) 5′-TTTCTTTAAAATAAAATTTCACGTA-3′ (SEQ ID NO:66). PCR products were analyzed on agarose gel.

PKC μ = PKC μ (Homo sapiens, UniProt Q15139); settings: higher concentrations; cited from earlier work
Sequence of PKC μ (Q15139 whole entry): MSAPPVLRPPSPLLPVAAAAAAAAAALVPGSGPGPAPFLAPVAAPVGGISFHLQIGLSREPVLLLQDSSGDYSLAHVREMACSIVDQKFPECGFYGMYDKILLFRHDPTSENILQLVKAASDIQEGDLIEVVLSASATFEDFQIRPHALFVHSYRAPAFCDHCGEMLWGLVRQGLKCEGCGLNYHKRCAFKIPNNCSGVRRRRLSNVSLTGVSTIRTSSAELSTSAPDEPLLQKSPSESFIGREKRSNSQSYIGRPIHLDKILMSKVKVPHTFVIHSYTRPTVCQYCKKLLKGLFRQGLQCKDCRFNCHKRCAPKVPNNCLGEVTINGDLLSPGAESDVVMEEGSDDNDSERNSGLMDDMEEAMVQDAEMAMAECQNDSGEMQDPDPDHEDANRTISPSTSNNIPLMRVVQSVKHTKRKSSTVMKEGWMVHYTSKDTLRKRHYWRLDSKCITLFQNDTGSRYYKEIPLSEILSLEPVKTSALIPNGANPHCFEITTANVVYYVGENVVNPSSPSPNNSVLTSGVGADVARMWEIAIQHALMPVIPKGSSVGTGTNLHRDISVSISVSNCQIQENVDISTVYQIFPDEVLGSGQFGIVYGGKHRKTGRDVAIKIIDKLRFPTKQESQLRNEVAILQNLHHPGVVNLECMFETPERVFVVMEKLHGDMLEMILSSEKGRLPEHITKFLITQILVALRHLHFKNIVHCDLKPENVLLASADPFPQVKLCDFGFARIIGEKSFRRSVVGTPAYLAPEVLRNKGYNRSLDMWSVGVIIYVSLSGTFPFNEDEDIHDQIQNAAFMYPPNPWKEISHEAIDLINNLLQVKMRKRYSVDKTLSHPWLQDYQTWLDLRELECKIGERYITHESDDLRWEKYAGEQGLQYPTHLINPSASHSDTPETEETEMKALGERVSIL

In the case of `COc1ccc2c(c1)c(C1=C(c3c[nH]c4ccccc34)C(=O)NC1=O)cn2CCCN(C)C` [Gö6983, 3-[1-[3-(dimethylamino)propyl]5-methoxy-1H-indol-3-yl]-4-(1H-indol-3-yl)-1H-pyrrole-2,5-dione], the “multidifferentiation potential upon withdrawal of Gö6983” value (E14 ES cells; ES cells maintained five passages with Gö6983, then withdrawal, FIG. 1E) is reported as “readily formed EBs or differentiated on collagen IV with induction of lineage-specific gene expression”, the “ES cell differentiation in the presence of collagen IV or retinoic acid” value (E14 ES cells; absence of LIF) is reported as “inhibited ES cell differentiation” and the “lineage-specific gene expression on collagen IV” value (E14 ES cells; quantitative RT-PCR, FIG. 1D) is reported as “repression of lineage-specific gene expression”. The “differentiation during continuous culture on collagen IV plates” value (E14 ES cells; without LIF, up to 8 consecutive passages) was “without any noticeable differentiation”, the “propagation of Gö6983-derived ES cell lines at clonal density” value (129/Sv blastocysts; cultured with Gö6983) was “successfully propagated in an undifferentiated state” and the “multilineage differentiation potential of established ES cell lines” value (129/Sv blastocysts; embryoid bodies, differentiated on collagen IV) was “readily formed embryoid bodies and expressed lineage specific markers”. For the same compound, the “derivation of ES cell colonies from blastocyst outgrowths” value (129/Sv blastocysts; serum and Gö6983, without LIF and feeder cells, gelatin-coated plates) was “multiple ES cell colonies were obtained from 10 blastocysts”, the “GSK-3β-mediated phosphorylation of c-Myc at T58 residue” value (c-Myc) was “did not inhibit” and the “H3K4 methylation (H3K4Me3) at Oct4 and Nanog loci” value [1] was “high levels of H3K4 methylation”. For the same compound, the “H3K9 methylation at the Oct4 and Nanog loci” value [1] was “inhibited H3K9 methylation”, the “H3K27me3 and EZH2 chromatin occupancy at developmental regulator genes” value ([1]; mESCs) was “maintained high levels of H3K27me3 and chromatin occupancy” and the “DNA methylation of promoter regions of Oct4 and Nanog” value [2] was “remained largely unmethylated”. For the same compound, the “concentration that inhibits isoform PKC μ” value (PKC μ) was greater than 20 µM.
